The source made the active and inactive calls. No rule for the calls is given here.
System: CCRIS mutagenicity, Ames/micronucleus/aberration tests
Experiment: CCRIS mutagenicity studies
[1] = Test System: AMES SALMONELLA TYPHIMURIUM, Strain/Indicator: TA1535, Metabolic Activation: NONE, Method: STANDARD PLATE
[2] = Test System: E. COLI, Strain/Indicator: WP2 UVRA, Metabolic Activation: NONE, Method: PREINCUBATION

`O=CC1CO1` (centres undefined) was tested, and the mutagenic call (Test System: AMES SALMONELLA TYPHIMURIUM, Strain/Indicator: TA100, Metabolic Activation: NONE, Method: STANDARD PLATE) was “active; positive”, the mutagenic call [1] was “active; positive” and the mutagenic call (Test System: E. COLI, Strain/Indicator: WP2 UVRA, Metabolic Activation: HAMSTER, LIVER, S-9, AROCLOR 1254, Method: PREINCUBATION) was “active; positive”. For the same molecule, the mutagenic call (Test System: E. COLI, Strain/Indicator: WP2 UVRA, Metabolic Activation: HAMSTER, LIVER, S-9, AROCLOR 1254, Method: STANDARD PLATE) was “active; positive”, the mutagenic call (Test System: E. COLI, Strain/Indicator: WP2 UVRA, Metabolic Activation: HAMSTER, LIVER, S-9, Method: PREINCUBATION) was “active; positive” and the mutagenic call (Test System: E. COLI, Strain/Indicator: WP2 UVRA, Metabolic Activation: HAMSTER, LIVER, S-9, Method: STANDARD PLATE) was “active; positive”. The mutagenic call (Test System: E. COLI, Strain/Indicator: WP2 UVRA, Metabolic Activation: MOUSE, LIVER, S-9, AROCLOR 1254, Method: PREINCUBATION) was “active; positive”, the mutagenic call (Test System: E. COLI, Strain/Indicator: WP2 UVRA, Metabolic Activation: MOUSE, LIVER, S-9, AROCLOR 1254, Method: STANDARD PLATE) was “active; positive” and the mutagenic call (Test System: E. COLI, Strain/Indicator: WP2 UVRA, Metabolic Activation: MOUSE, LIVER, S-9, Method: PREINCUBATION) was “active; positive”. The mutagenic call (Test System: E. COLI, Strain/Indicator: WP2 UVRA, Metabolic Activation: MOUSE, LIVER, S-9, Method: STANDARD PLATE) was “active; positive”, the mutagenic call [2] was “active; positive” and the mutagenic call (Test System: E. COLI, Strain/Indicator: WP2 UVRA, Metabolic Activation: NONE, Method: STANDARD PLATE) was “active; positive”. For the same molecule, the mutagenic call (Test System: E. COLI, Strain/Indicator: WP2 UVRA, Metabolic Activation: RAT, LIVER, S-9, AROCLOR 1254, Method: PREINCUBATION) was “active; positive”, the mutagenic call (Test System: E. COLI, Strain/Indicator: WP2 UVRA, Metabolic Activation: RAT, LIVER, S-9, AROCLOR 1254, Method: STANDARD PLATE) was “active; positive” and the mutagenic call (Test System: E. COLI, Strain/Indicator: WP2 UVRA, Metabolic Activation: RAT, LIVER, S-9, Method: PREINCUBATION) was “active; positive”. For the same molecule, the mutagenic call (Test System: E. COLI, Strain/Indicator: WP2 UVRA, Metabolic Activation: RAT, LIVER, S-9, Method: STANDARD PLATE) was “active; positive” and the mutagenic call (Test System: UDS HUMAN FIBROBLASTS, Strain/Indicator: THY INCORP (NON-S-PHASE), Metabolic Activation: NONE, Method: LIQUID SCINTILLATION COUNTING) was “active; positive”.

In the case of `CCOC(=O)CNC(=O)C=[N+]=[N-]`, the mutagenic call [1] is reported as “active; positive” and the mutagenic call (Test System: UDS RODENT PRIMARY CELLS, Strain/Indicator: THY INCORP (NON-S-PHASE), Metabolic Activation: NONE, Method: AUTORADIOGRAPHY) is reported as “active; positive”.

`COc1ccccc1[N+](=O)[O-]` was tested, and the mutagenic call (End Point: IN VITRO CHROMOSOMAL ABERRATIONS, Test System: CHINESE HAMSTER OVARY CELLS, Metabolic Activation: RAT, LIVER, S-9, AROCLOR 1254) was “active; positive; precipitation occurred at all doses”, the mutagenic call (End Point: IN VITRO CHROMOSOMAL ABERRATIONS, Test System: CHL CELLS, Metabolic Activation: RAT, LIVER, S-9, SODIUM PHENOBARBITAL AND 5,6-BENZOFLAVONE) was “active; positive (structural changes)” and the mutagenic call (Test System: AMES SALMONELLA TYPHIMURIUM, Strain/Indicator: TA97, Metabolic Activation: HAMSTER LIVER S-9, AROCLOR 1254 (10%), Method: PREINCUBATION) was “inactive; negative”. The mutagenic call (Test System: AMES SALMONELLA TYPHIMURIUM, Strain/Indicator: TA97, Metabolic Activation: NONE, Method: PREINCUBATION) was “inactive; negative”, the mutagenic call (Test System: AMES SALMONELLA TYPHIMURIUM, Strain/Indicator: TA97, Metabolic Activation: RAT LIVER S-9, AROCLOR 1254 (10%), Method: PREINCUBATION) was “inactive; negative” and the mutagenic call (Test System: AMES SALMONELLA TYPHIMURIUM, Strain/Indicator: TA98, Metabolic Activation: HAMSTER LIVER S-9, AROCLOR 1254 (10%), Method: PREINCUBATION) was “inactive; negative”. For the same molecule, the mutagenic call (Test System: AMES SALMONELLA TYPHIMURIUM, Strain/Indicator: TA98, Metabolic Activation: RAT LIVER S-9, AROCLOR 1254 (10%), Method: PREINCUBATION) was “inactive; negative”, the mutagenic call (Test System: AMES SALMONELLA TYPHIMURIUM, Strain/Indicator: TA98, Metabolic Activation: RAT LIVER S-9, PHENOBARBITAL AND BETA-NAPHTHOFLAVONE, Method: PREINCUBATION) was “inactive; negative” and the mutagenic call (Test System: AMES SALMONELLA TYPHIMURIUM, Strain/Indicator: TA98, Metabolic Activation: RAT, LIVER, S-9, KANECHLOR 500, Method: PREINCUBATION) was “inactive; negative”. For the same molecule, the mutagenic call (Test System: AMES SALMONELLA TYPHIMURIUM, Strain/Indicator: TA100, Metabolic Activation: HAMSTER LIVER S-9, AROCLOR 1254 (10%), Method: PREINCUBATION) was “active; positive”, the mutagenic call (Test System: AMES SALMONELLA TYPHIMURIUM, Strain/Indicator: TA100, Metabolic Activation: HAMSTER, LIVER, S-9, AROCLOR 1254, FLAVIN MONONUCLEOTIDE, Method: PREINCUBATION) was “inactive; negative” and the mutagenic call (Test System: AMES SALMONELLA TYPHIMURIUM, Strain/Indicator: TA100, Metabolic Activation: HAMSTER, LIVER, S-9, AROCLOR 1254, Method: PREINCUBATION) was “inactive; negative”. For the same molecule, the mutagenic call (Test System: AMES SALMONELLA TYPHIMURIUM, Strain/Indicator: TA100, Metabolic Activation: RAT LIVER S-9, AROCLOR 1254 (10%), Method: PREINCUBATION) was “active; positive”, the mutagenic call (Test System: AMES SALMONELLA TYPHIMURIUM, Strain/Indicator: TA100, Metabolic Activation: RAT LIVER S-9, PHENOBARBITAL AND BETA-NAPHTHOFLAVONE, Method: PREINCUBATION) was “active; positive” and the mutagenic call (Test System: AMES SALMONELLA TYPHIMURIUM, Strain/Indicator: TA100, Metabolic Activation: RAT, LIVER, S-9, AROCLOR 1254, FLAVIN MONONUCLEOTIDE, Method: PREINCUBATION) was “inactive; negative”. The mutagenic call (Test System: AMES SALMONELLA TYPHIMURIUM, Strain/Indicator: TA100, Metabolic Activation: RAT, LIVER, S-9, AROCLOR 1254, Method: STANDARD PLATE) was “active; positive”, the mutagenic call (Test System: AMES SALMONELLA TYPHIMURIUM, Strain/Indicator: TA100, Metabolic Activation: RAT, LIVER, S-9, KANECHLOR 500, Method: PREINCUBATION) was “active; positive” and the mutagenic call (Test System: AMES SALMONELLA TYPHIMURIUM, Strain/Indicator: TA1535, Metabolic Activation: HAMSTER LIVER S-9, AROCLOR 1254 (10%), Method: PREINCUBATION) was “inactive; negative”. For the same molecule, the mutagenic call (Test System: AMES SALMONELLA TYPHIMURIUM, Strain/Indicator: TA1535, Metabolic Activation: NONE, Method: PREINCUBATION) was “inactive; negative”, the mutagenic call (Test System: AMES SALMONELLA TYPHIMURIUM, Strain/Indicator: TA1535, Metabolic Activation: RAT LIVER S-9, AROCLOR 1254 (10%), Method: PREINCUBATION) was “inactive; negative” and the mutagenic call (Test System: AMES SALMONELLA TYPHIMURIUM, Strain/Indicator: TA1535, Metabolic Activation: RAT LIVER S-9, PHENOBARBITAL AND BETA-NAPHTHOFLAVONE, Method: PREINCUBATION) was “inactive; negative”. The mutagenic call (Test System: AMES SALMONELLA TYPHIMURIUM, Strain/Indicator: TA1537, Metabolic Activation: HAMSTER LIVER S-9, AROCLOR 1254 (10%), Method: PREINCUBATION) was “inactive; negative”, the mutagenic call (Test System: AMES SALMONELLA TYPHIMURIUM, Strain/Indicator: TA1537, Metabolic Activation: NONE, Method: PREINCUBATION) was “inactive; negative” and the mutagenic call (Test System: AMES SALMONELLA TYPHIMURIUM, Strain/Indicator: TA1537, Metabolic Activation: RAT LIVER S-9, AROCLOR 1254 (10%), Method: PREINCUBATION) was “inactive; negative”. The mutagenic call (Test System: AMES SALMONELLA TYPHIMURIUM, Strain/Indicator: TA1537, Metabolic Activation: RAT LIVER S-9, PHENOBARBITAL AND BETA-NAPHTHOFLAVONE, Method: PREINCUBATION) was “inactive; negative”, the mutagenic call (Test System: AMES SALMONELLA TYPHIMURIUM, Strain/Indicator: TA1538, Metabolic Activation: NONE, Method: PREINCUBATION) was “active; positive” and the mutagenic call (Test System: E.COLI, Strain/Indicator: WP2UVRA, Metabolic Activation: NONE, Method: PREINCUBATION) was “inactive; negative”. For the same molecule, the mutagenic call (Test System: E.COLI, Strain/Indicator: WP2UVRA, Metabolic Activation: RAT LIVER S-9, PHENOBARBITAL AND BETA-NAPHTHOFLAVONE, Method: PREINCUBATION) was “inactive; negative”.

`CCCCN(N=O)C(=O)NC` was tested, and the mutagenic call [2] was “active; positive” and the mutagenic call (Test System: E. COLI, Strain/Indicator: WP2 UVRA, Metabolic Activation: RAT, LIVER, S-9, PHENOBARBITAL AND 5,6-BENZOFLAVONE, Method: PREINCUBATION) was “active; positive”.

From PubChem BioAssay AID1259407 (Chemical Carcinogenesis Research Information System (CCRIS), 2018)
